Test results reported in patent US10653672B2, “Myogenesis promotor, muscle atrophy inhibitor, medical composition and TAZ activator” (National University Corporation Tokyo Medical and Dental …, priority 2014, dated 2020).

How the values were obtained:
[1] = system: A431 cells; experiment: Immunoblotting of EMT markers in A431 cells; type: cell-based
Method: (1) A431 cells, (epidermoid carcinoma), A549 cells (adenocarcinomic human alveolar basal epithelial cell) and HCT116 cells (human colon cancer) were treated with IBS008738 or DMSO, respectively, and evaluated by immunoblotting.
HEK293, A431, A549, HCT116, MCF7 and SW480 cells were cultured in Dulbecco's Modified Eagle Medium (DMEM) containing 10% fetal bovine serum (FBS), 10 mM HEPES-NaOH at pH 7.4, 100 U/ml penicillin and 100 mg/I streptomycin under 5% CO2 at 37° C.

[2] = system: A431 cells; experiment: Proliferation of A431 cells in 3D matrigel; type: cell-based; conditions: A431 cells in 2% BD Matrigel; 10 μM; 10 days; maximum diameter of 30 cell aggregates
Method: (2) Each well of a 96-well plate was pre-coated with 30 μL BD Matrigel (trade name, Becton, Dickinson and Company). A431 cells were suspended in the 2% BD Matrigel at a concentration of 2.1×10^6 cells/mL. This cell solution (140 μL) was added with 0.17 μL of 10 mM IBS008739 stock solution in DMSO or 0.17 μL of DMSO, and used to layer the pre-coated wells, and proliferation in the 3D matrigel was observed (see FIG. 12B). 300 of A431 cells were placed in each well of Ultra Low Attachment 96-well plate, and cultured in a serum-free DMEM-F-12 medium containing 10 ng/mL FGF, 5 μg/mL insulin and 0.1% (w/v) BSA. Formation of tumor spheres was observed under the condition with 10 mM IBS008739 stock solution dissolved in DMSO so that the final concentration was 10 μM, or the condition with DMSO of the same volume (see FIG. 12C). The maximum diameter of 30 cell aggregates of 150 μm or more observed in the 3D matrigel or sphere formation condition) are measured as the size of 3D colony or sphere. The results are shown in Table 10 and FIGS. 12B and 12C. The line in the figure is 200 μm. The line and the error bar indicate the average value and the standard error, and ns refers to not significant.
Observation of the spheres and the 3D matrigel cultivation were performed by the following processes. […]

## Cc1ccc(-n2cnc(/N=C/N3CCOCC3)c2C(=O)c2ccccc2)cc1 [exemplary compound 1]
[1]
  EMT markers (fibronectin, E-cadherin, N-cadherin and vimentin) compared with DMSO: no significant difference
[2]
  3D colony size, average size (μm): 272.30 μm
